Results reported in patent US9290453B2 (Merck Sharp & Dohme Corp., priority 2010, dated 2016).
Where a name gives a salt, the structure may show the parent alone.

Molecular target: T1, hCRTH2 (Homo sapiens, UniProt Q9Y5Y4)
T1 construct: expressed in transfected cells; host or cells: HEK (human embryonic kidney) cells expressing hCRTH2
T1 sequence (Q9Y5Y4 1-395): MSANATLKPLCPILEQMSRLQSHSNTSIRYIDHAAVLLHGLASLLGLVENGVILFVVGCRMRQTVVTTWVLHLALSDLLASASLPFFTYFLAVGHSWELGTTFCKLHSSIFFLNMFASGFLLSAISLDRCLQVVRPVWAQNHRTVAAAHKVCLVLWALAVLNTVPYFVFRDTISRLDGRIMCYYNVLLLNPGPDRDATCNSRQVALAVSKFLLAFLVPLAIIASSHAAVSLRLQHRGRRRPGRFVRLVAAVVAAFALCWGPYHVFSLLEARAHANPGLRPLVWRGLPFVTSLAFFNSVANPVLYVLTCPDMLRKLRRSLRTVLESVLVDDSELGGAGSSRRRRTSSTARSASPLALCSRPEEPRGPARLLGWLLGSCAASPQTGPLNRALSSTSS
Assay: Radioligand Binding Assay A ([3H]PGD2 filtration binding, HEK-hCRTH2 membranes)
Protocol: Radioligand binding assays were performed at room temperature in 50 mM Tris-HCl pH 7.4, 1 mM EDTA containing 2 mM MnCl2 and 3.0 nM [^3H]PGD2 (New England Nuclear, Boston, Mass.) (171 Ci mmol^−1), in a final volume of 0.2 ml. Competing ligands were diluted in dimethylsulfoxide (Me2SO) that was kept constant at 1% (v/v) of the final incubation volume. The reaction was initiated by the addition of 8-20 μg of membrane protein prepared from a human embryonic kidney (HEK)-hCRTH2 cell line. Total and non-specific binding were determined in the absence and the presence of 10 μM PGD2, respectively. Under these conditions, specific binding (total minus non-specific) of the radioligand to the receptor reached equilibrium within 50 min and was stable up to 180 min. The reaction was routinely conducted for 60 min at room temperature and terminated by rapid filtration through prewetted (0.3% polyethyleneimine) 96-well printed Filtermate™ (Wallac) using a Tomtec® harvester (Hamden, Conn.). After washing with cold buffer, the filter was dried for 2 minutes in microwave, and Meltilex Scintillator sheet (Wallac) was melted on for 2 min. The radioactivity was measured with Betaplate model 1205 (Wallac).

SMILES | Ki (Table A, rated A-D) [nM] | Ki (values in text) [nM]
O=C(O)CCCCc1cc2cc(C(=O)NCc3ccc(OC(F)(F)F)cc3)ccc2nc1-c1ccccc1 [Compound 1, 5-(2-phenyl-6-(4-(trifluoromethoxy)benzylcarbamoyl)quinolin-3-yl)pentanoic acid trifluoroacetate] | 2.1 to 20 | –
O=C(O)CCCCc1cc2cc(C(=O)NCCCN3CCCC3=O)ccc2nc1-c1ccccc1 [Compound 1AA, 6-[[[3-(2-oxo-1-pyrrolidinyl)propyl]amino]carbonyl]-2-phenyl-3-quinolinepentanoic acid] | 2.1 to 20 | –
O=C(O)CCCCc1cc2cc(C(=O)Nc3cc4ccccc4[nH]3)ccc2nc1-c1ccccc1 [Compound 1AB, 6-[(1H-indol-2-ylamino)carbonyl]-2-phenyl-3-quinolinepentanoic acid] | 2.1 to 20 | –
CCCCCCCCCNC(=O)c1ccc2nc(-c3ccccc3)c(CCCCC(=O)O)cc2c1 [Compound 1AC, 6-[(nonylamino)carbonyl]-2-phenyl-3-quinolinepentanoic acid] | 2.1 to 20 | –
C[C@@H](NC(=O)c1ccc2nc(-c3ccccc3)c(CCCCC(=O)O)cc2c1)c1ccc(Cl)cc1 [Compound 1AD, 6-[[[1(R)-(4-chlorophenyl)ethyl]amino]carbonyl]-2-phenyl-3-quinolinepentanoic acid] | 2.1 to 20 | 3.5
C[C@H](NC(=O)c1ccc2nc(-c3ccccc3)c(CCCCC(=O)O)cc2c1)c1ccc(Cl)cc1 [Compound 1AE, 6-[[[1(S)-(4-chlorophenyl)ethyl]amino]carbonyl]-2-phenyl-3-quinolinepentanoic acid] | 2.1 to 20 | –
O=C(O)CCCCc1cc2cc(C(=O)N[C@H](c3ccc(Cl)cc3)C(F)(F)F)ccc2nc1-c1ccccc1 [Compound 1AF, 6-[[[1(R)-(4-chlorophenyl)-2,2,2-trifluoroethyl]amino]carbonyl]-2-phenyl-3-quinolinepentanoic acid] | 2.1 to 20 | –
O=C(O)CCCCc1cc2cc(C(=O)NCc3cccc(Cl)c3)ccc2nc1-c1ccccc1 [Compound 1D, 6-[[[(3-chlorophenyl)methyl]amino]carbonyl]-2-phenyl-3-quinolinepentanoic acid] | 2.1 to 20 | –
Cc1ccc(CNC(=O)c2ccc3nc(-c4ccccc4)c(CCCCC(=O)O)cc3c2)cc1 [Compound 1E, 6-[[[(4-methylphenyl)methyl]amino]carbonyl]-2-phenyl-3-quinolinepentanoic acid] | 2.1 to 20 | 4.4
O=C(O)CCCCc1cc2cc(C(=O)NCc3ccc(C(F)(F)F)cc3)ccc2nc1-c1ccccc1 [Compound 1F, 2-phenyl-6-[[[[4-(trifluoromethyl)phenyl]methyl]amino]carbonyl]-3-quinolinepentanoic acid] | 2.1 to 20 | –
O=C(O)CCCCc1cc2cc(C(=O)N[C@@H](c3ccccc3)C(F)(F)F)ccc2nc1-c1ccccc1 [Compound 1G, 2-phenyl-6-[[(2,2,2-trifluoro-1(S)-phenylethyl)amino]carbonyl]-3-quinolinepentanoic acid] | 2.1 to 20 | –
O=C(O)CCCCc1cc2cc(C(=O)N[C@H](c3ccccc3)C(F)(F)F)ccc2nc1-c1ccccc1 [Compound 1H, 2-phenyl-6-[[(2,2,2-trifluoro-1(R)-phenylethyl)amino]carbonyl]-3-quinolinepentanoic acid] | 2.1 to 20 | –
O=C(O)CCCCc1cc2cc(C(=O)N3CC[C@H](c4ccccc4)C3)ccc2nc1-c1ccccc1 [Compound 1J, 2-phenyl-6-[(3(R)-phenyl-1-pyrrolidinyl)carbonyl]-3-quinolinepentanoic acid] | 2.1 to 20 | –
O=C(O)CCCCc1cc2cc(C(=O)N3CCC[C@@H](c4ccccc4)C3)ccc2nc1-c1ccccc1 [Compound 1K, 2-phenyl-6-[(3(S)-phenyl-1-piperidinyl)carbonyl]-3-quinolinepentanoic acid] | 2.1 to 20 | –
O=C(O)CCCCc1cc2cc(C(=O)N3CCC[C@H](c4ccccc4)C3)ccc2nc1-c1ccccc1 [Compound 1L, 2-phenyl-6-[(3(R)-phenyl-1-piperidinyl)carbonyl]-3-quinolinepentanoic acid] | 2.1 to 20 | –
O=C(O)CCCCc1cc2cc(C(=O)N[C@@H]3CCc4ccccc43)ccc2nc1-c1ccccc1 [Compound 1M, 6-[[(2,3-dihydro-1H-inden-1(R)-yl)amino]carbonyl]-2-phenyl-3-quinolinepentanoic acid] | 2.1 to 20 | 3.8
O=C(O)CCCCc1cc2cc(C(=O)N[C@H]3CCc4ccccc43)ccc2nc1-c1ccccc1 [Compound 1N, 6-[[(2,3-dihydro-1H-inden-1(S)-yl)amino]carbonyl]-2-phenyl-3-quinolinepentanoic acid] | 2.1 to 20 | –
O=C(O)CCCCc1cc2cc(C(=O)N[C@H]3CCCc4ccccc43)ccc2nc1-c1ccccc1 [Compound 1P, 2-phenyl-6-[[(1,2,3,4-tetrahydro-1(S)-naphthalenyl)amino]carbonyl]-3-quinolinepentanoic acid] | 2.1 to 20 | –
O=C(O)CCCCc1cc2cc(C(=O)NC3Cc4ccccc4C3)ccc2nc1-c1ccccc1 [Compound 1Q, 6-[[(2,3-dihydro-1H-inden-2-yl)amino]carbonyl]-2-phenyl-3-quinolinepentanoic acid] | 2.1 to 20 | –
O=C(O)CCCCc1cc2cc(C(=O)N3CCC(c4ccccc4)CC3)ccc2nc1-c1ccccc1 [Compound 1R, 2-phenyl-6-[(4-phenyl-1-piperidinyl)carbonyl]-3-quinolinepentanoic acid] | 0.1 to 2 | 1.8
C[C@@H](NC(=O)c1ccc2nc(-c3ccccc3)c(CCCCC(=O)O)cc2c1)c1ccccc1 [Compound 1S, 2-phenyl-6-[[(l(R)-phenylethyl)amino]carbonyl]-3-quinolinepentanoic acid] | 2.1 to 20 | –
C[C@H](NC(=O)c1ccc2nc(-c3ccccc3)c(CCCCC(=O)O)cc2c1)c1ccccc1 [Compound 1T, 2-phenyl-6-[[(l(S)-phenylethyl)amino]carbonyl]-3-quinolinepentanoic acid] | 2.1 to 20 | –
CN(Cc1ccccc1)C(=O)c1ccc2nc(-c3ccccc3)c(CCCCC(=O)O)cc2c1 [Compound 1U, 6-[[methyl(phenylmethyl)amino]carbonyl]-2-phenyl-3-quinolinepentanoic acid] | 2.1 to 20 | –
O=C(O)CCCCc1cc2cc(C(=O)NCc3ccc(C(F)(F)F)nc3)ccc2nc1-c1ccccc1 [Compound 1V, 2-phenyl-6-[[[[6-(trifluoromethyl)-3-pyridinyl]methyl]amino]carbonyl]-3-quinolinepentanoic acid] | 2.1 to 20 | –
CC(NC(=O)c1ccc2nc(-c3ccccc3)c(CCCCC(=O)O)cc2c1)c1ccncc1 (stereo not shown) [Compound 1W, 2-phenyl-6-[[[1-(4-pyridinyl)ethyl]amino]carbonyl]-3-quinolinepentanoic acid] | 20.1 to 200 | –
O=C(O)CCCCc1cc2cc(C(=O)NCc3cccnc3)ccc2nc1-c1ccccc1 [Compound 1X, 2-phenyl-6-[[(3-pyridinylmethyl)amino]carbonyl]-3-quinolinepentanoic acid] | 20.1 to 200 | 28.9
O=C(O)CCCCc1cc2cc(C(=O)NCc3ccncc3)ccc2nc1-c1ccccc1 [Compound 1Y, 2-phenyl-6-[[(4-pyridinylmethyl)amino]carbonyl]-3-quinolinepentanoic acid] | 20.1 to 200 | –
O=C(O)CCCCc1cc2cc(C(=O)NCCCN3CCCC3)ccc2nc1-c1ccccc1 [Compound 1Z, 2-phenyl-6-[[[3-(1-pyrrolidinyl)propyl]amino]carbonyl]-3-quinolinepentanoic acid] | 201 to 700 | 570
